Results as given in ChEMBL document CHEMBL4507329, “Data for DCP probe BTZO-1” (2021).

Assays:
[1] = target: Casein kinase II subunit alpha (Homo sapiens) (UniProt P68400); conditions: Compound concentration 1000.0 nM
[2] = target: Protein-tyrosine kinase 2-beta (Homo sapiens) (UniProt Q14289); conditions: Compound concentration 1000.0 nM
[3] = target: Serine/threonine-protein kinase Nek7 (Homo sapiens) (UniProt Q8TDX7); conditions: Compound concentration 1000.0 nM
[4] = target: Serine/threonine-protein kinase 38 (Homo sapiens) (UniProt Q15208); conditions: Compound concentration 1000.0 nM
Serine/threonine-protein kinase 38 (Homo sapiens), sequence (Q15208 2-465 limits assumed): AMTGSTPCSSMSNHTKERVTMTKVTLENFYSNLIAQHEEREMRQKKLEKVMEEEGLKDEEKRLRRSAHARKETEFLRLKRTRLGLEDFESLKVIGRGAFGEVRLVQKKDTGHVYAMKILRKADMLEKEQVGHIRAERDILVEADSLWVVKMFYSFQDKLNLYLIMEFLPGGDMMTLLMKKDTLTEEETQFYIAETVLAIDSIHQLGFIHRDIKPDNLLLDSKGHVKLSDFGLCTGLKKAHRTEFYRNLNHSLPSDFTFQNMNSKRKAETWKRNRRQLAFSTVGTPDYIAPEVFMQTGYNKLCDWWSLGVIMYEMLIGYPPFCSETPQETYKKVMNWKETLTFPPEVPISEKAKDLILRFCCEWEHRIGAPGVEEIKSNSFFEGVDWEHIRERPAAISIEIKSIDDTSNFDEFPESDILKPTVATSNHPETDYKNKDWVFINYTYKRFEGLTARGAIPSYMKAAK

[5] = target: Leucine-rich repeat serine/threonine-protein kinase 2 (Homo sapiens) (UniProt Q5S007); conditions: Compound concentration 1000.0 nM
[6] = target: MAP kinase-activated protein kinase 2 (Homo sapiens) (UniProt P49137); conditions: Compound concentration 1000.0 nM
[7] = target: Ephrin type-B receptor 6 (Homo sapiens) (UniProt O15197); conditions: Compound concentration 1000.0 nM
[8] = system: Tyrosine-protein kinase ABL1 (Homo sapiens), P00519 [H396P]; conditions: Compound concentration 1000.0 nM
[9] = system: Tyrosine-protein kinase ABL1 (Homo sapiens), P00519 [T315I]; conditions: Compound concentration 1000.0 nM
[10] = system: Epidermal growth factor receptor (Homo sapiens), P00533 [UNDEFINED MUTATION]; conditions: Compound concentration 1000.0 nM
[11] = target: Serine/threonine-protein kinase PAK 3 (Homo sapiens) (UniProt O75914); conditions: Compound concentration 1000.0 nM
[12] = target: Ephrin type-B receptor 2 (Homo sapiens) (UniProt P29323); conditions: Compound concentration 1000.0 nM
[13] = target: Tyrosine-protein kinase HCK (Homo sapiens) (UniProt P08631); conditions: Compound concentration 1000.0 nM
[14] = system: Hepatocyte growth factor receptor (Homo sapiens), P08581 [Y1235D]; conditions: Compound concentration 1000.0 nM
[15] = target: Serine/threonine-protein kinase 4 (Homo sapiens) (UniProt Q13043); conditions: Compound concentration 1000.0 nM
Serine/threonine-protein kinase 4 (Homo sapiens), sequence (Q13043 whole entry): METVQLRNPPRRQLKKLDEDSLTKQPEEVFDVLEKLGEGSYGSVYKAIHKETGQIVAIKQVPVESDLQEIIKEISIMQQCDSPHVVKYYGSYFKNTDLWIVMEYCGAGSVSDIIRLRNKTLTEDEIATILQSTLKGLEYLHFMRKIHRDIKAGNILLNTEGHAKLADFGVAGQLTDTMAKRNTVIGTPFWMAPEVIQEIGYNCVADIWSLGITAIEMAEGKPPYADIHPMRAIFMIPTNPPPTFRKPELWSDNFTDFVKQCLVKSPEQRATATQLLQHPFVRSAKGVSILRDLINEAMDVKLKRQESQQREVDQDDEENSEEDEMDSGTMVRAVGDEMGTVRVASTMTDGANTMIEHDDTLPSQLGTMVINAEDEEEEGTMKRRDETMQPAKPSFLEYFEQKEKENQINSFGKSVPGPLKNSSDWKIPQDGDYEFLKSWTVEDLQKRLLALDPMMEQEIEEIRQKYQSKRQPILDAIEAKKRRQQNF

[16] = target: Receptor tyrosine-protein kinase erbB-3 (Homo sapiens) (UniProt P21860); conditions: Compound concentration 1000.0 nM
Receptor tyrosine-protein kinase erbB-3 (Homo sapiens), sequence (P21860 whole entry): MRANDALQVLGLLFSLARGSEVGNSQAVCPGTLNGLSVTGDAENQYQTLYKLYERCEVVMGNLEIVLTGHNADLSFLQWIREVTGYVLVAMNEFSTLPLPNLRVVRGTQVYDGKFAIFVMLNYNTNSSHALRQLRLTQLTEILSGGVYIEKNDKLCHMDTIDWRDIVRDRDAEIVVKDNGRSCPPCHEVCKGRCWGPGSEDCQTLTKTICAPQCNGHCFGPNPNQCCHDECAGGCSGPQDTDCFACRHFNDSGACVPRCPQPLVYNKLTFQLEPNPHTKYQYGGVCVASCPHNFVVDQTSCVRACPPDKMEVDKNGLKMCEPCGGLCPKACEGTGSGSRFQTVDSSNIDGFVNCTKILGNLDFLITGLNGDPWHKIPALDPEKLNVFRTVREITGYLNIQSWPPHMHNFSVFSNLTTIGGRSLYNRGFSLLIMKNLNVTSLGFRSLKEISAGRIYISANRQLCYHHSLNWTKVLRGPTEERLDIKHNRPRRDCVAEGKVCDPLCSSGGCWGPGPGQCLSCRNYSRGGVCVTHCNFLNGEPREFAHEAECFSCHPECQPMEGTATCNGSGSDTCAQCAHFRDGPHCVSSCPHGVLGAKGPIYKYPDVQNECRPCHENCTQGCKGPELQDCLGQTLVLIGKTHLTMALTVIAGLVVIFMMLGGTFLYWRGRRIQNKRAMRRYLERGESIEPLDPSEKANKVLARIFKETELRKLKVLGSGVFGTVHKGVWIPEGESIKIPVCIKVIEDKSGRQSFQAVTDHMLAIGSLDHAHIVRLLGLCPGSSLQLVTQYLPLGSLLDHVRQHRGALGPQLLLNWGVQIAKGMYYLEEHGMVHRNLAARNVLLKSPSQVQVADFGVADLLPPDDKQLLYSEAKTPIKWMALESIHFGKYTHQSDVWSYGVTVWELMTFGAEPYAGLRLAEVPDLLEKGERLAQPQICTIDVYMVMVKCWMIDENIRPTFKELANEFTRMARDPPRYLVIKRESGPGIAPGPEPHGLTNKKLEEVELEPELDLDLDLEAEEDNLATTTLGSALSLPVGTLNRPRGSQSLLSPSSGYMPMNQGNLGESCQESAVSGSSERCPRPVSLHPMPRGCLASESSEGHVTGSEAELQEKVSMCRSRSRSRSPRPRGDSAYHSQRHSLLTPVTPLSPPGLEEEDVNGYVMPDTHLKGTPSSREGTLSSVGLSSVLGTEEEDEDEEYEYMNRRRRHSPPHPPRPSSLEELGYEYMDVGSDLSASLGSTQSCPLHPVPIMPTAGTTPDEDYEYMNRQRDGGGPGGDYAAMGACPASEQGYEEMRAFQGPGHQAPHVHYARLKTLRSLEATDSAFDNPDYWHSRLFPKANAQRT

[17] = target: Dual specificity tyrosine-phosphorylation-regulated kinase 1B (Homo sapiens) (UniProt Q9Y463); conditions: Compound concentration 1000.0 nM
[18] = target: Mitogen-activated protein kinase 10 (Homo sapiens) (UniProt P53779); conditions: Compound concentration 1000.0 nM
[19] = target: Cyclin-dependent kinase-like 5 (Homo sapiens) (UniProt O76039); conditions: Compound concentration 1000.0 nM
[20] = target: Casein kinase I isoform epsilon (Homo sapiens) (UniProt P49674); conditions: Compound concentration 1000.0 nM
[21] = target: Mitogen-activated protein kinase 3 (Homo sapiens) (UniProt P27361); conditions: Compound concentration 1000.0 nM
Mitogen-activated protein kinase 3 (Homo sapiens), sequence (P27361 whole entry): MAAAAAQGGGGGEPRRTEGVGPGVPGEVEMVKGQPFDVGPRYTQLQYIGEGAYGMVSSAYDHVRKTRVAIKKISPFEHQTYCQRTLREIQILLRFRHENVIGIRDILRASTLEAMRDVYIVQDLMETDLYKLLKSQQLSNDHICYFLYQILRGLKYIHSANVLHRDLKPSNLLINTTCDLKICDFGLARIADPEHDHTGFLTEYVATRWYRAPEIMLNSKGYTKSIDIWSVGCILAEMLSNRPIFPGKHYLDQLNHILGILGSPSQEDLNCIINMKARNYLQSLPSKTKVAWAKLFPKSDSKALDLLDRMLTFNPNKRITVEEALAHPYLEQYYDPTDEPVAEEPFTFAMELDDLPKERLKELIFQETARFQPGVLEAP

[22] = system: Mast/stem cell growth factor receptor Kit (Homo sapiens), P10721 [D816V]; conditions: Compound concentration 1000.0 nM
[23] = target: Mitogen-activated protein kinase kinase kinase 9 (Homo sapiens) (UniProt P80192); conditions: Compound concentration 1000.0 nM
Mitogen-activated protein kinase kinase kinase 9 (Homo sapiens), sequence (P80192 whole entry, looked up): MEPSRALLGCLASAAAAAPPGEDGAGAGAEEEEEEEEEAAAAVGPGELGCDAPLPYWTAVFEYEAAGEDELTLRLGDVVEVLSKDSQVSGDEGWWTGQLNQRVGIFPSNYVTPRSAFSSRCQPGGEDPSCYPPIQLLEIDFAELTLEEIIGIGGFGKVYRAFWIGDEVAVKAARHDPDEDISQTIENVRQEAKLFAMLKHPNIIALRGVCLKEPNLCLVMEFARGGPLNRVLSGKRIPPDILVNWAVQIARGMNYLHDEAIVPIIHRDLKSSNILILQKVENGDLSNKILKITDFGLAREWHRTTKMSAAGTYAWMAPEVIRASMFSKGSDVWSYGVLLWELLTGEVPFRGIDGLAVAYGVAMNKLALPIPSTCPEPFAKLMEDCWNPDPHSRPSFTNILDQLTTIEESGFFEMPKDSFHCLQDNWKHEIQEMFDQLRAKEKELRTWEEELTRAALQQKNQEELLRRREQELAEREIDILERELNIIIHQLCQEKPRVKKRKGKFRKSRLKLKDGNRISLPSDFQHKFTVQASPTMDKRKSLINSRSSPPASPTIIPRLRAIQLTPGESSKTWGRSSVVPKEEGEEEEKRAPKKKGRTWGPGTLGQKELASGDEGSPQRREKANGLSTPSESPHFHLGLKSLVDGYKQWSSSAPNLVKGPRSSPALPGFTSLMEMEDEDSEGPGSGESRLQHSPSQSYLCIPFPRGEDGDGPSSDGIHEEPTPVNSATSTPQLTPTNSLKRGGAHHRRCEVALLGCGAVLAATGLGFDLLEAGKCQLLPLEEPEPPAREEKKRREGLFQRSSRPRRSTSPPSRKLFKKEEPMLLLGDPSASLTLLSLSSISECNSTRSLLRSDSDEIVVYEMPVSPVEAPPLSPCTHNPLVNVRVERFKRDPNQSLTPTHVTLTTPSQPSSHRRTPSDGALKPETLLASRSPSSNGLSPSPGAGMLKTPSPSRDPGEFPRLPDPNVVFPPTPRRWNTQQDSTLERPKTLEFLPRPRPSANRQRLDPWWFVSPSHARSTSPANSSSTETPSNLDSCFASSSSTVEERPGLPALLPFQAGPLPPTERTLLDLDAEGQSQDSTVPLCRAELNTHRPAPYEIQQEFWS

[24] = target: Serine/threonine-protein kinase NIM1 (Homo sapiens) (UniProt Q8IY84); conditions: Compound concentration 1000.0 nM
[25] = target: Serine/threonine-protein kinase Nek11 (Homo sapiens) (UniProt Q8NG66); conditions: Compound concentration 1000.0 nM
[26] = target: 5-hydroxytryptamine receptor 3A (Homo sapiens) (UniProt P46098); conditions: Compound concentration 10.0 uM
[27] = system: Epidermal growth factor receptor (Homo sapiens), P00533 [L858R,T790M]; conditions: Compound concentration 1000.0 nM
[28] = target: Beta-3 adrenergic receptor (Homo sapiens) (UniProt P13945); conditions: Compound concentration 10.0 uM
[29] = target: Phosphatidylinositol 4-phosphate 5-kinase type-1 alpha (Homo sapiens) (UniProt Q99755); conditions: Compound concentration 1000.0 nM
Phosphatidylinositol 4-phosphate 5-kinase type-1 alpha (Homo sapiens), sequence (Q99755 whole entry, canonical isoform): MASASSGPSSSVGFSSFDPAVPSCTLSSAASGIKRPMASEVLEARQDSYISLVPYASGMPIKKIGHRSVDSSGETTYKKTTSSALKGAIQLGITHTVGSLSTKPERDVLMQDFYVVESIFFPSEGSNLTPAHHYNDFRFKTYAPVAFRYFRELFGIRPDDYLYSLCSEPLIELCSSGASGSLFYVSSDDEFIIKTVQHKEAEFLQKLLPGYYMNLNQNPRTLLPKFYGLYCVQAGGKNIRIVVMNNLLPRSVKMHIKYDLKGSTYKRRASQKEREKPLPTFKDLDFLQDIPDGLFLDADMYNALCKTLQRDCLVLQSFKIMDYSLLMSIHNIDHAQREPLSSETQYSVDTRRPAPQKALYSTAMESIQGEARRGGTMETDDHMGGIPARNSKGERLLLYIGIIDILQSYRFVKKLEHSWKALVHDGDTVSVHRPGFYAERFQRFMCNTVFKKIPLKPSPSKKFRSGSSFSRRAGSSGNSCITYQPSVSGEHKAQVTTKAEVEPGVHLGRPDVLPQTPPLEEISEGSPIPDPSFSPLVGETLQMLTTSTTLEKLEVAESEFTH

[30] = system: Phosphatidylinositol 4,5-bisphosphate 3-kinase catalytic subunit alpha isoform (Homo sapiens), P42336 [E545K]; conditions: Compound concentration 1000.0 nM
[31] = target: Ribosomal protein S6 kinase alpha-1 (Homo sapiens) (UniProt Q15418); conditions: Compound concentration 1000.0 nM
[32] = system: Proto-oncogene tyrosine-protein kinase receptor Ret (Homo sapiens), P07949 [M918T]; conditions: Compound concentration 1000.0 nM
[33] = target: Calcium/calmodulin-dependent protein kinase type 1B (Homo sapiens) (UniProt Q6P2M8); conditions: Compound concentration 1000.0 nM
[34] = target: Testis-specific serine/threonine-protein kinase 3 (Homo sapiens) (UniProt Q96PN8); conditions: Compound concentration 1000.0 nM
Testis-specific serine/threonine-protein kinase 3 (Homo sapiens), sequence (Q96PN8 whole entry, canonical isoform): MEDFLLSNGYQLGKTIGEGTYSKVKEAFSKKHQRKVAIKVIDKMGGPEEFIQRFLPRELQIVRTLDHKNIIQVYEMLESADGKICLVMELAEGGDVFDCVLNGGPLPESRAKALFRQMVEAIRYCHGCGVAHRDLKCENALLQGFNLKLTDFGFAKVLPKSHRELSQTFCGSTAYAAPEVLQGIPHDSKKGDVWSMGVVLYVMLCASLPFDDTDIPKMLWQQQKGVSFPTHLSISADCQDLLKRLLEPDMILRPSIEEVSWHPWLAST

[35] = system: Phosphatidylinositol 4,5-bisphosphate 3-kinase catalytic subunit alpha isoform (Homo sapiens), P42336 [Q546K]; conditions: Compound concentration 1000.0 nM
[36] = target: Non-receptor tyrosine-protein kinase TYK2 (Homo sapiens) (UniProt P29597); conditions: Compound concentration 1000.0 nM
[37] = system: Mast/stem cell growth factor receptor Kit (Homo sapiens), P10721 [D816H]; conditions: Compound concentration 1000.0 nM
[38] = target: G protein-coupled receptor kinase 4 (Homo sapiens) (UniProt P32298); conditions: Compound concentration 1000.0 nM
[39] = target: Mitogen-activated protein kinase 8 (Homo sapiens) (UniProt P45983); conditions: Compound concentration 1000.0 nM
[40] = target: Activin receptor type-1 (Homo sapiens) (UniProt Q04771); conditions: Compound concentration 1000.0 nM
[41] = target: 3-phosphoinositide-dependent protein kinase 1 (Homo sapiens) (UniProt O15530); conditions: Compound concentration 1000.0 nM
[42] = target: Serine/threonine-protein kinase N2 (Homo sapiens) (UniProt Q16513); conditions: Compound concentration 1000.0 nM
[43] = target: Proto-oncogene tyrosine-protein kinase receptor Ret (Homo sapiens) (UniProt P07949); conditions: Compound concentration 1000.0 nM
[44] = target: Ribosomal protein S6 kinase beta-1 (Homo sapiens) (UniProt P23443); conditions: Compound concentration 1000.0 nM
[45] = target: D(1A) dopamine receptor (Homo sapiens) (UniProt P21728); conditions: Compound concentration 10.0 uM
D(1A) dopamine receptor (Homo sapiens), sequence (P21728 whole entry): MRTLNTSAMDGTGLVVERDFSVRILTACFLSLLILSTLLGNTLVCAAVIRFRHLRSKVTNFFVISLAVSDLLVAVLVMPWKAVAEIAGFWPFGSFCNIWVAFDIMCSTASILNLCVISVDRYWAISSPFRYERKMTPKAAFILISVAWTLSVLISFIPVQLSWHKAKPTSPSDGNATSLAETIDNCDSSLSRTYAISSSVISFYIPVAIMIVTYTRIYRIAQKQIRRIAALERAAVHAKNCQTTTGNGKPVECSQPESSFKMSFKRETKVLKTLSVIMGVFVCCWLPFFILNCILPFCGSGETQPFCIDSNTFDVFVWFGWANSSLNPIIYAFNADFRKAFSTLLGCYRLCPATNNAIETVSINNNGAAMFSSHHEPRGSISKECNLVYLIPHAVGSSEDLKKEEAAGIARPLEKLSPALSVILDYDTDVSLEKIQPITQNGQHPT

O=c1nc(-c2ccccn2)sc2ccccc12 [BTZO-1]
inactive: residual activity [1] 68% | residual activity [2] 100% | residual activity [3] 75% | residual activity [4] 76% | residual activity [5] 97% | residual activity [6] 100% | residual activity [7] 61% | residual activity [8] 100% | residual activity [9] 100% | residual activity [10] 74% | residual activity [11] 84% | residual activity [12] 100% | residual activity [13] 94% | residual activity [14] 100% | residual activity [15] 75% | residual activity [16] 83% | residual activity [17] 100% | residual activity [18] 100% | residual activity [19] 100% | residual activity [20] 88% | residual activity [21] 80% | residual activity [22] 100% | residual activity [23] 85% | residual activity [24] 100% | residual activity [25] 100% | inhibition [26] 17.2% | residual activity [27] 100% | inhibition [28] 20.1% | residual activity [29] 100% | residual activity [30] 65% | residual activity [31] 100% | residual activity [32] 81% | residual activity [33] 56% | residual activity [34] 86% | residual activity [35] 100% | residual activity [36] 100% | residual activity [37] 92% | residual activity [38] 100% | residual activity [39] 100% | residual activity [40] 79% | residual activity [41] 100% | residual activity [42] 100% | residual activity [43] 89% | residual activity [44] 100% | inhibition [45] 3.24%

O=C1NC(c2ccccn2)Sc2ccccc21 (stereo not given) [BTZO-4]
inactive: residual activity [1] 61% | residual activity [2] 76% | residual activity [3] 68% | residual activity [4] 76% | residual activity [5] 93% | residual activity [6] 100% | residual activity [7] 78% | residual activity [8] 80% | residual activity [9] 100% | residual activity [10] 68% | residual activity [11] 83% | residual activity [12] 71% | residual activity [13] 90% | residual activity [14] 96% | residual activity [15] 81% | residual activity [16] 88% | residual activity [17] 100% | residual activity [18] 100% | residual activity [19] 100% | residual activity [20] 98% | residual activity [21] 74% | residual activity [22] 100% | residual activity [23] 88% | residual activity [24] 100% | residual activity [25] 95% | inhibition [26] -1.17% | residual activity [27] 100% | inhibition [28] 32.4% | residual activity [29] 100% | residual activity [30] 73% | residual activity [31] 100% | residual activity [32] 64% | residual activity [33] 71% | residual activity [34] 88% | residual activity [35] 100% | residual activity [36] 88% | residual activity [37] 79% | residual activity [38] 100% | residual activity [39] 100% | residual activity [40] 82% | residual activity [41] 97% | residual activity [42] 100% | residual activity [43] 88% | residual activity [44] 75% | inhibition [45] 7.77%
